{"source": "the supplement of paper PMC10307832", "assay_in_all_cases": "relative viability (nuclei count vs DMSO), 5 days (fraction); higher = more cells survive", "key": {"Pemetrexed + Dasatinib": {"compound": "Nc1nc2[nH]cc(CCc3ccc(C(=O)N[C@@H](CCC(=O)O)C(=O)O)cc3)c2c(=O)[nH]1 [Pemetrexed] + Cc1nc(Nc2ncc(C(=O)Nc3c(C)cccc3Cl)s2)cc(N2CCN(CCO)CC2)n1 [Dasatinib] (partner 0.075 µM)", "outline": "(§1)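 Nuclei were stained with Hoechst during a one-step fixation (final 0.05% Triton X-100, 1% formaldehyde, 1 ug/ml Hoechst) carried out 5 days after dosing, then counted on 4× images. The cells, lung cancer lines in 1536-well plates, had been dosed by pin tool the day after seeding with one drug alone or a fixed anchor-drug dose plus five library-drug doses (not always all listed) in √10 steps. Relative viability is the nuclei count in treated wells divided by that in vehicle wells, and each value is the median of duplicate plates.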"}, "Pemetrexed + Olaparib": {"compound": "Nc1nc2[nH]cc(CCc3ccc(C(=O)N[C@@H](CCC(=O)O)C(=O)O)cc3)c2c(=O)[nH]1 [Pemetrexed] + O=C(c1cc(Cc2n[nH]c(=O)c3ccccc23)ccc1F)N1CCN(C(=O)C2CC2)CC1 [Olaparib] (partner 8 µM)", "outline": "as §1"}, "Idelalisib + Luminespib": {"compound": "CC[C@H](Nc1ncnc2[nH]cnc12)c1nc2cccc(F)c2c(=O)n1-c1ccccc1 [Idelalisib] + CCNC(=O)c1noc(-c2cc(C(C)C)c(O)cc2O)c1-c1ccc(CN2CCOCC2)cc1 [Luminespib] (partner 0.01 µM)", "outline": "as §1"}, "Idelalisib + OSI-027": {"compound": "CC[C@H](Nc1ncnc2[nH]cnc12)c1nc2cccc(F)c2c(=O)n1-c1ccccc1 [Idelalisib] + COc1cccc2cc(-c3nc([C@H]4CC[C@H](C(=O)O)CC4)n4ncnc(N)c34)[nH]c12 [OSI-027] (partner 0.5 µM)", "outline": "as §1"}}}
{"cell line": "UMC-11", "values": [{"measurement": "relative viability", "setting": "Pemetrexed + Dasatinib; first compound 0.002 µM", "result": 0.483}, {"measurement": "relative viability", "setting": "Pemetrexed + Dasatinib; first compound 0.006325 µM", "result": 0.451}, {"measurement": "relative viability", "setting": "Pemetrexed + Dasatinib; first compound 0.02 µM", "result": 0.468}, {"measurement": "relative viability", "setting": "Pemetrexed + Dasatinib; first compound 0.06325 µM", "result": 0.442}, {"measurement": "relative viability", "setting": "Pemetrexed + Dasatinib; first compound 0.2 µM", "result": 0.474}, {"measurement": "relative viability", "setting": "Pemetrexed + Olaparib; first compound 0.002 µM", "result": 0.361}, {"measurement": "relative viability", "setting": "Pemetrexed + Olaparib; first compound 0.006325 µM", "result": 0.374}, {"measurement": "relative viability", "setting": "Pemetrexed + Olaparib; first compound 0.02 µM", "result": 0.999}, {"measurement": "relative viability", "setting": "Pemetrexed + Olaparib; first compound 0.06325 µM", "result": 0.441}, {"measurement": "relative viability", "setting": "Pemetrexed + Olaparib; first compound 0.2 µM", "result": 0.358}, {"measurement": "relative viability", "setting": "Idelalisib + Luminespib; first compound 0.04 µM", "result": 0.902}, {"measurement": "relative viability", "setting": "Idelalisib + Luminespib; first compound 0.1265 µM", "result": 1.13}, {"measurement": "relative viability", "setting": "Idelalisib + Luminespib; first compound 0.4 µM", "result": 1.08}, {"measurement": "relative viability", "setting": "Idelalisib + Luminespib; first compound 1.265 µM", "result": 1.03}, {"measurement": "relative viability", "setting": "Idelalisib + Luminespib; first compound 4 µM", "result": 0.949}, {"measurement": "relative viability", "setting": "Idelalisib + OSI-027; first compound 0.04 µM", "result": 0.429}, {"measurement": "relative viability", "setting": "Idelalisib + OSI-027; first compound 0.1265 µM", "result": 0.491}, {"measurement": "relative viability", "setting": "Idelalisib + OSI-027; first compound 0.4 µM", "result": 0.542}, {"measurement": "relative viability", "setting": "Idelalisib + OSI-027; first compound 1.265 µM", "result": 0.513}, {"measurement": "relative viability", "setting": "Idelalisib + OSI-027; first compound 4 µM", "result": 0.42}]}
